Test results reported in patent US7205315B2, “Bicyclic imino acid derivatives as inhibitors of matrix metalloproteinases” (Sanofi-Aventis Deutschland GmbH, priority 2003, dated 2007).
Structures can show the parent of a compound that is named as a salt.

Assays:
Type in all cases: biochemical
[1] = biological target: T1, catalytic domain of human collagenase-1 (MMP-1) (Homo sapiens, UniProt P03956); assay: Enzyme activity of the catalytic domain of human collagenase-1 (MMP-1), fluorogenic substrate; conditions: APMA-activated proenzyme, fluorescence 328/393 nm
T1 construct: enzyme activity of the catalytic domain of human collagenase-1 (MMP-1); purchased Biocol, Potsdam MMP1
T1 sequence (P03956 100-269 limits assumed): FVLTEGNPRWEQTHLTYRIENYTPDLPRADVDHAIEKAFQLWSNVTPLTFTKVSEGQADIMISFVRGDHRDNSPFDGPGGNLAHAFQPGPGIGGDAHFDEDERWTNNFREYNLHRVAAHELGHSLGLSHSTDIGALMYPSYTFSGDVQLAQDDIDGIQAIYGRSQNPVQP
Description: a) Determining the enzyme activity of the catalytic domain of human collagenase-1 (MMP-1).
Activation of the proenzyme:
2 parts by volume of proenzyme are incubated, at 37° C. for 1 hour, with 1 part by volume of APMA solution. The APMA solution is prepared from a 10 mmol/l solution of p-aminophenylmercuric acetate in 0.1 mmol/l NaOH by diluting with 3 parts by volume of tris/HCl buffer, pH 7.5 (see below). The pH is adjusted to between 7.0 and 7.5 by adding 1 mmol/l HCl. After the enzyme has been activated, it is diluted with the tris/HCl buffer to a concentration of 2.5 μg/ml.
(§1) In order to measure the enzyme activity, 10 μl of enzyme solution are incubated for 15 minutes with 10 μl of a 3% (v/v) buffered solution of dimethyl sulfoxide (reaction 1). In order to measure the enzyme inhibitor activity, 10 μl of enzyme solution are incubated with 10 μl of a 3% (v/v) buffered solution of dimethyl sulfoxide which contains the enzyme inhibitor (reaction 2).
Both in the case of reaction 1 and in the case of reaction 2, the enzyme reaction is monitored by fluorescence spectroscopy (328 nm (extinction)/393 nm (emission)) after adding 10 μl of a 3% (v/v) aqueous solution of dimethyl sulfoxide which contains 0.3 mmol of the substrate/l.
(§2) The enzyme activity is presented as increase in extinction/minute.
The inhibitory effect is calculated as percentage inhibition using the following formula: % inhibition=100−[(increase in extinction/minute in reaction 2)/(increase in extinction/minute in reaction 1)×100].
The IC50, i.e. the inhibitor concentration which is required for 50% inhibition of the enzyme activity, is determined graphically by plotting the percentage inhibitions at different inhibitor concentrations. The buffer solution contains 0.05% Brij (Sigma, Deisenhofen, Germany) and also 0.1 mol of tris/HCl/l, 0.1 mol of NaCl/l, 0.01 mol of CaCl2/l (pH=7.5).
The enzyme solution contains 2.5 μg of the enzyme domain/ml.
The substrate solution contains 0.3 mmol of the fluorogenic substrate (7-methoxycoumarin-4-yl)acetyl-Pro-Leu-Gly-Leu-3-(2′,4′-dinitrophenyl)-L-2,3-diaminopropionyl-Ala-Arg-NH2/l (Bachem, Heidelberg, Germany).

[2] = biological target: T2, catalytic domain of human gelatinase A (MMP-2) (Homo sapiens, UniProt P08253); assay: Enzyme activity of the catalytic domain of human gelatinase A (MMP-2), fluorogenic substrate; conditions: APMA-activated proenzyme, fluorescence 328/393 nm
T2 construct: enzyme activity of the catalytic domain of human gelatinase A (MMP-2); purchased INVITEK, Berlin 30 100 602
Description: d) Determining the enzyme activity of the catalytic domain of human gelatinase A (MMP-2). […] Activation of the proenzyme:
2 parts by volume of proenzyme were incubated, at 37° C. for 0.5 hour, with 1 part by volume of APMA solution. The APMA solution was prepared from a 10 mmol/l solution of p-aminophenylmercuric acetate in 0.1 mmol/l NaOH by diluting it with 3 parts by volume of tris/HCl buffer, pH 7.5 (see below). The pH was adjusted to between 7.0 and 7.5 by adding 1 mmol/l HCl. After the enzyme had been activated, it was diluted with the tris/HCl buffer to a concentration of 0.83 μg/ml.
as §1, with “were” for “are”, “contained” for “contains”
Both in the case of reaction 1 and in the case of reaction 2, the enzyme reaction was monitored by fluorescence spectroscopy (328 nm (extinction)/393 nm (emission)) after 10 μl of a 3% (v/v) aqueous solution of dimethyl sulfoxide which contained 0.3 mmol of the substrate/1 had been added.
The enzyme activity was presented as increase in extinction/minute.
The effect of the inhibitor was calculated as percentage inhibition in accordance with the following formula: % inhibition=100−[(increase in extinction/minute in reaction 2)/(increase in extinction/minute in reaction 1)×100].
The IC50, that is the concentration of inhibitor which is required for 50% inhibition of the enzyme activity, was determined graphically by plotting the percentage inhibitions at different inhibitor concentrations.
The buffer solution contained 0.05% Brij (Sigma, Deisenhofen, Germany) and also 0.1 mol of tris/HCl/l, 0.1 mol of NaCl/l, 0.01 mol of CaCl2/l (pH=7.5). The enzyme solution contained 0.83 μg of the enzyme domain/ml. The substrate solution contained 0.3 mmol of the fluorogenic substrate (7-methoxycoumarin-4-yl)acetyl-Pro-Leu-Gly-Leu-3-(2′,4′-dinitrophenyl)-L-2,3-diaminopropionyl-Ala-Arg-NH2/l (Bachem, Heidelberg, Germany).

[3] = biological target: T3, catalytic domain of human stromelysin (MMP-3) (Homo sapiens, UniProt P08254); assay: Enzyme activity of the catalytic domain of human stromelysin (MMP-3), fluorogenic substrate; conditions: catalytic domain prepared as described by Ye et al., fluorescence 328/393 nm
T3 construct: of the catalytic domain of human stromelysin (MMP-3) and neutrophilic collagenase (MMP-8); made in house
Description: b) Preparation, and determination of the enzyme activity, of the catalytic domain of human stromelysin (MMP-3) and neutrophilic collagenase (MMP-8).
The two enzymes, i.e. stromelysin (MMP-3) and neutrophilic collagenase (MMP-8), were prepared as described by Ye et al. (Biochemistry; 31 (1992) pages 11231–11235). In order to measure the enzyme activity or the inhibitory effect on the enzyme, 10 μl of enzyme solution were incubated, for 15 minutes, with 10 μl of a 3% (v/v) buffered solution of dimethyl sulfoxide which contained the enzyme inhibitor, where appropriate. After 10 μl of a 3% (v/v) aqueous solution of dimethyl sulfoxide which contained 1 mmol of substrate/l had been added, the enzyme reaction was monitored by fluorescence spectroscopy (328 nm (ex)/393 nm(em)).
as §2
The buffer solution contained 0.05% Brij (Sigma, Deisenhofen, Germany) as well as 0.1 mol of tris/HCl/l, 0.1 mol of NaCl/l, 0.01 mol of CaCl2/l and 0.1 mol of piperazine-N,N′-bis[2-ethanesulfonic acid]/l (pH=7.5). The MMP-3 enzyme solution contained 2.3 μg, and the MMP-8 enzyme solution contained 0.6 μg, of one of the enzyme domains/ml prepared as described by Ye et al. The substrate solution contained 1 mmol of the fluorogenic substrate (7-methoxycoumarin-4-yl)acetyl-Pro-Leu-Gly-Leu-3-(2′,4′-dinitrophenyl)-L-2,3-diaminopropionyl-Ala-Arg-NH2/l (Bachem, Heidelberg, Germany).

T3 sequence (P08254 100-272 limits assumed): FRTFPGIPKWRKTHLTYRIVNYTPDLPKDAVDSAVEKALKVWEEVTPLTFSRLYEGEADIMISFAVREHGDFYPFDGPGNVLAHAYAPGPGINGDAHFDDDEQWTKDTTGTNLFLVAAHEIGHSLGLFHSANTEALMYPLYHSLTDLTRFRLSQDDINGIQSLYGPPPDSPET
T2 sequence (P08253 110-465 limits assumed): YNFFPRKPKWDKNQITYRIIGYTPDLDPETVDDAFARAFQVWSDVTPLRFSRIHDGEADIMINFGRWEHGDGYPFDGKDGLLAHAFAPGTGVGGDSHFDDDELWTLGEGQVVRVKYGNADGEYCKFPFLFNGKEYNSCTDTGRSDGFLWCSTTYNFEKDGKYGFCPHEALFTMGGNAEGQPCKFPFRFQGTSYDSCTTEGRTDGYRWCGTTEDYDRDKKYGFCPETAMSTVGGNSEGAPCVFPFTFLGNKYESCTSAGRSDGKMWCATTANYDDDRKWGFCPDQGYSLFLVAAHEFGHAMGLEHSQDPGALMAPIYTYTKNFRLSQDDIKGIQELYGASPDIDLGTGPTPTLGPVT

IC50 [1]	IC50 [2]	IC50 [3]	SMILES
2100 nM	3 nM	59 nM	O=C(NO)C1C2CCCCC2CCN1S(=O)(=O)c1ccc(-c2ccc(OC(F)(F)F)cc2)cc1 (stereo not drawn) [Example 19, 2-(4′-trifluoromethoxybiphenyl-4-sulfonyl)decahydroisoquinoline-1-(N-hydroxy)carboxamide]
220 nM	2 nM	25 nM	COc1ccc(Oc2ccc(S(=O)(=O)N3CCC4CCCCC4C3C(=O)NO)cc2)cc1 (stereo not drawn) [Example 11, 2-[4-(4-methoxyphenoxy)benzenesulfonyl]decahydroisoquinoline-1-(N-hydroxy)carboxamide]
41 nM	2 nM	26 nM	O=C(NO)C1C2CCCCC2CCN1S(=O)(=O)c1ccc(Oc2ccc(F)cc2)cc1 (stereo not drawn) [Example 20, 2-[4-(4-fluorophenoxy)benzenesulfonyl]decahydroisoquinoline-1-(N-hydroxy)carboxamide]
290 nM	2 nM	50 nM	O=C(NO)C1C2CCCCC2CCN1S(=O)(=O)c1ccc(Oc2ccc(OC(F)(F)F)cc2)cc1 (stereo not drawn) [Example 23, 2-[4-(4-trifluoromethoxyphenoxy)benzenesulfonyl]decahydroisoquinoline-1-(N-hydroxy)carboxamide]
21 nM	1.5 nM	23 nM	O=C(NO)[C@H]1[C@H]2CCCC[C@H]2CCN1S(=O)(=O)c1ccc(Oc2ccc(F)cc2)cc1 [Example 21, 2-[4-(4-fluorophenoxy)benzenesulfonyl]decahydroisoquinoline-1-(N-hydroxy)carboxamide]
450 nM	8 nM	41 nM	N#Cc1ccc(Oc2ccc(S(=O)(=O)N3CCC4CCCCC4C3C(=O)NO)cc2)cc1 (stereo not drawn) [Example 26, 2-[4-(4-cyanophenoxy)benzenesulfonyl]decahydroisoquinoline-1-(N-hydroxy)carboxamide]
180 nM	2.6 nM	30 nM	O=C(NO)C1C2CCCCC2CCN1S(=O)(=O)c1ccc(Oc2ccc(OCC(F)(F)F)cc2)cc1 (stereo not drawn) [Example 13, 2-{4-[4-(2,2,2-trifluoroethoxy)phenoxy]benzenesulfonyl}decahydroisoquinoline-1-(N-hydroxy)carboxamide]

Continued, compound first:

SMILES	IC50 [1]	IC50 [2]	IC50 [3]
O=C(NO)[C@@H]1[C@@H]2CCCC[C@@H]2CCN1S(=O)(=O)c1ccc(-c2ccc(Cl)cc2)cc1 (single isomer, unassigned) [Example 15, 2-(4′-chlorobiphenyl-4-sulfonyl)decahydroisoquinoline-1-(N-hydroxy)-carboxamide]	6000 nM	2300 nM	10000 nM
O=C(NO)C1C2CCCCC2CCN1S(=O)(=O)c1ccc(Oc2ccccc2)nc1 (stereo not drawn) [Example 5, 2-(6-phenoxypyridine-3-sulfonyl)decahydroisoquinoline-1-(N-hydroxy)-carboxamide trifluoroacetate]	70 nM	2 nM	28 nM
O=C(NO)C1C2CCCCC2CCN1S(=O)(=O)c1ccc(Oc2ccncc2)cc1 (stereo not drawn) [Example 9, 2-[4-(pyridin-4-yloxy)benzenesulfonyl]decahydroisoquinoline-1-(N-hydroxy)carboxamide trifluoroacetate]	1000 nM	20 nM	160 nM
O=C(NO)C1C2CCCCC2CCN1S(=O)(=O)c1ccc(-c2ccc(Cl)cc2)cc1 (stereo not drawn) [Example 3, 2-(4′-chlorobiphenyl-4-sulfonyl)decahydroisoquinoline-1-(N-hydroxy)-carboxamide]	400 nM	30 nM	40 nM
O=C(NO)C1C2CCCCC2CCN1S(=O)(=O)CCc1ccc(-c2ccc(Cl)cc2)cc1 (stereo not drawn) [Example 7, 2-[2-(4′-chlorobiphenyl-4-yl)ethanesulfonyl]decahydroisoquinoline-1-(N-hydroxy)carboxamide]	600 nM	4 nM	65 nM
O=C(NO)[C@H]1[C@H]2CCCC[C@H]2CCN1S(=O)(=O)c1ccc(-c2ccc(Cl)cc2)cc1 (single isomer, unassigned) [Example 14, 2-(4′-chlorobiphenyl-4-sulfonyl)decahydroisoquinoline-1-(N-hydroxy)-carboxamide]	400 nM	2 nM	25 nM
